Reference: patent US11286258B2, “Nature-inspired anticancer and antibacterial motifs and pharmaceutical composition thereof” (University of Sharjah, priority 2020, dated 2022)
Values after ≈ are worked out from the molar mass of the structure shown. Like-named read-outs stand apart in the source and are kept apart here. Marks after values point to notes of the source that are not given here.

How the values were obtained:
[1] = system: MRSA-3 (clinical isolate); test: MIC broth microdilution, MRSA-3; assay type: cell-based, Staphylococcus aureus; conditions: for MIC: Staphylococcus aureus, MRSA, read-out: MIC MRSA-3 (clinical isolate)
Procedure: (§1) Antibacterial activity: The compounds were tested for the minimum inhibitory concentrations (MIC), which is the lowest concentration of a chemical required to inhibit visible microbial growth following overnight incubation. MIC values were determined using broth microdilution method according to the Clinical and Laboratory Standards Institute guidelines (CLSI, 2015, M07-A10). Mueller-Hinton broth was used as a culture medium in all the experiments. Exponentially growing bacterial cells were prepared in Mueller-Hinton broth at a concentration of approximately 5×10^5 CFU/mL. Two-fold serial dilutions of the test compound (8 concentrations ranged between 100-0.78 μg/mL) were tested. […] In each experiment, solvent (DMSO) was used as a negative control, un-treated control (composing of bacteria in Mueller-Hinton broth) was used as a growth control, blank (culture media alone) was used as sterility control. The 96-well microplate with the test compounds was incubated overnight at 37° C. Turbidity in wells indicated bacterial growth.
(§2) The compounds were tested on six MDR Gram-positive bacteria including three clinical isolates of methicillin-resistant Staphylococcus aureus (MRSA-1, MRSA-2 and MRSA-3) and three reference MRSA strains (ATCC33591, ATCC33592 and ATCC700699). They were also tested on three MDR Gram-negative bacteria including New Delhi metallo-beta-lactamase (NDM-1) positive, carbapenem-resistant E. coli (ATCC BAA2469), extended-spectrum beta-lactamase (ESBL) producing, colistin-resistant E. coli (CDC-AR-0346) and carbapenem-resistant Acinetobacter baumannii (ATCC BAA1605), in addition to two non-MDR bacteria from the same species, namely E. coli (ATCC 25922) Acinetobacter baumannii (ATCC 19606).

MRSA-ATCC33592 = test: MIC broth microdilution, MRSA ATCC33592; assay type: cell-based, Staphylococcus aureus; conditions: for MIC: Staphylococcus aureus, read-out: MIC MRSA-ATCC33592
Procedure: as §1, §2

[2] = system: MRSA-1 (clinical isolate); test: MIC broth microdilution, MRSA-1; assay type: cell-based, Staphylococcus aureus; conditions: for MIC: Staphylococcus aureus, MRSA, read-out: MIC MRSA-1 (clinical isolate)
Procedure: as §1, §2

MRSA-ATCC700699 (VISA) = test: MIC broth microdilution, MRSA ATCC700699 (VISA); assay type: cell-based, Staphylococcus aureus; conditions: for MIC: Staphylococcus aureus, read-out: MIC MRSA-ATCC700699 (VISA)
Procedure: as §1, §2

[3] = system: MRSA-2 (clinical isolate); test: MIC broth microdilution, MRSA-2; assay type: cell-based, Staphylococcus aureus; conditions: for MIC: Staphylococcus aureus, MRSA, read-out: MIC MRSA-2 (clinical isolate)
Procedure: as §1, §2

MRSA-ATCC33591 = test: MIC broth microdilution, MRSA ATCC33591; assay type: cell-based, Staphylococcus aureus; conditions: for MIC: Staphylococcus aureus, read-out: MIC MRSA-ATCC33591
Procedure: as §1, §2

[4] = system: Acinetobacter baumannii ATCC BAA1605 (carbapenem-resistant); test: MIC broth microdilution, A. baumannii ATCC BAA1605; assay type: cell-based; conditions: overnight incubation; for MIC Acinetobacter baumannii ATCC BAA1605 (carbapenem-resistant): MDR
Procedure: as §1, §2

[5] = system: E. coli ATCC BAA2469 (NDM-1 carbapenem-resistant); test: MIC broth microdilution, E. coli ATCC BAA2469; assay type: cell-based, Escherichia coli; conditions: overnight incubation; for MIC E. coli ATCC BAA2469 (NDM-1 carbapenem-resistant): MDR
Procedure: as §1, §2

[6] = system: E. coli CDC-AR-0346 (ESBL, colistin resistant); test: MIC broth microdilution, E. coli CDC-AR-0346; assay type: cell-based, Escherichia coli; conditions: MDR, overnight incubation
Procedure: as §1, §2

[7] = system: Acinetobacter baumannii ATCC 19606; test: MIC broth microdilution, A. baumannii ATCC 19606; assay type: cell-based; conditions: not MDR, overnight incubation
Procedure: as §1, §2

E. coli ATCC25922 = test: MIC broth microdilution, E. coli ATCC25922; assay type: cell-based, Escherichia coli; conditions: not MDR, overnight incubation
Procedure: as §1, §2

[8] = overnight incubation, Mueller-Hinton broth
[9] = strain intermediately resistant to vancomycin, overnight incubation

Compound: FC(F)(F)c1ccc(N/N=C2\C=C[C@@]3(CC2)CC[C@@H]2NCCc4c2n3c2ccc(OCc3ccccc3)cc42)cc1 [Compound 1l]
- MIC [1, 8]: 3.12 µg/mL (≈ 5.61 µM)
- MIC (MRSA-ATCC33592; [8]): 3.12 µg/mL (≈ 5.61 µM)
- MIC [2, 8]: 1.56 µg/mL (≈ 2.8 µM)
- MIC (MRSA-ATCC700699 (VISA); [9]): 3.12 µg/mL (≈ 5.61 µM)
- MIC [3, 8]: 3.12 µg/mL (≈ 5.61 µM)
- MIC (MRSA-ATCC33591; [8]): 3.12 µg/mL (≈ 5.61 µM)

Compound: COC(=O)[C@@H]1Cc2c3n(c4ccccc24)[C@@]2(C=C/C(=N\Nc4ccc(C(F)(F)F)cc4)CC2)CC[C@@H]3N1 [Compound 1m]
- MIC [1, 8]: 3.12 µg/mL (≈ 6.14 µM)
- MIC (MRSA-ATCC33592; [8]): 6.25 µg/mL (≈ 12.3 µM)
- MIC [2, 8]: 3.12 µg/mL (≈ 6.14 µM)
- MIC (MRSA-ATCC700699 (VISA); [9]): 6.25 µg/mL (≈ 12.3 µM)
- MIC [3, 8]: 3.12 µg/mL (≈ 6.14 µM)
- MIC (MRSA-ATCC33591; [8]): 6.25 µg/mL (≈ 12.3 µM)

Compound: COC(=O)[C@H]1Cc2c3n(c4ccccc24)[C@@]2(C=C/C(=N\Nc4ccc(C(F)(F)F)cc4)CC2)CC[C@@H]3N1 [Compound 1n]
- MIC [1, 8]: 3.12 µg/mL (≈ 6.14 µM)
- MIC (MRSA-ATCC33592; [8]): 6.25 µg/mL (≈ 12.3 µM)
- MIC [2, 8]: 3.12 µg/mL (≈ 6.14 µM)
- MIC (MRSA-ATCC700699 (VISA); [9]): 6.25 µg/mL (≈ 12.3 µM)
- MIC [3, 8]: 3.12 µg/mL (≈ 6.14 µM)
- MIC (MRSA-ATCC33591; [8]): 6.25 µg/mL (≈ 12.3 µM)

Compound: C[C@@H](O)[C@H]1C(=O)N2C(C(=O)O)=C(S[C@@H]3CN[C@H](C(=O)N(C)C)C3)[C@H](C)[C@H]12 [Meropenem]
- MIC ([4]; Acinetobacter baumannii, ATCCBAA1605, MDR): 12.5 µg/mL (≈ 32.6 µM)
- MIC ([5]; Escherichia coli, ATCCBAA2469, MDR): 25 µg/mL (≈ 65.2 µM)
- MIC ([6]; Escherichia coli): < 0.2 µg/mL
- MIC ([7]; Acinetobacter baumannii, ATCC19606): 0.6 µg/mL (≈ 1.56 µM)
- MIC (E. coli ATCC25922; Escherichia coli, ATCC25922): < 0.02 µg/mL

Compound: CN[C@H](CC(C)C)C(=O)N[C@H]1C(=O)N[C@@H](CC(N)=O)C(=O)N[C@H]2C(=O)N[C@H]3C(=O)N[C@H](C(=O)N[C@H](C(=O)O)c4cc(O)cc(O)c4-c4cc3ccc4O)[C@H](O)c3ccc(c(Cl)c3)Oc3cc2cc(c3O[C@@H]2O[C@H](CO)[C@@H](O)[C@H](O)[C@H]2O[C@H]2C[C@](C)(N)[C@H](O)[C@H](C)O2)Oc2ccc(cc2Cl)[C@H]1O [Vancomycin, reference compound]
- MIC [1]: 1 µg/mL (≈ 0.69 µM)
- MIC (MRSA-ATCC33592): 1 µg/mL (≈ 0.69 µM)
- MIC [2]: 1 µg/mL (≈ 0.69 µM)
- MIC (MRSA-ATCC700699 (VISA)): 8 µg/mL (≈ 5.52 µM)
- MIC MRSA-ATCC700699 (VISA) (MRSA-ATCC700699 (VISA); [9]): 8 * μg/mL
- MIC [3]: 1 µg/mL (≈ 0.69 µM)
- MIC (MRSA-ATCC33591): 1 µg/mL (≈ 0.69 µM)

Compound: Colistin
- MIC Acinetobacter baumannii ATCC BAA1605 (carbapenem-resistant) [4]: 1.25 µg/mL
- MIC E. coli ATCC BAA2469 (NDM-1 carbapenem-resistant) [5]: 1.25 µg/mL
- MIC E. coli CDC-AR-0346 (ESBL, colistin resistant) [6]: 6.25 µg/mL
- MIC Acinetobacter baumannii ATCC 19606 [7]: 1.25 µg/mL
- MIC E. coli ATCC25922 (E. coli ATCC25922): 0.2 µg/mL

Compound: Gentamicin [reference compound]
- MIC MRSA-3 (clinical isolate) [1, 8]: 0.625 µg/mL
- MIC Acinetobacter baumannii ATCC BAA1605 (carbapenem-resistant) [4]: 125 µg/mL
- MIC E. coli ATCC BAA2469 (NDM-1 carbapenem-resistant) [5]: >1000 µg/mL
- MIC E. coli CDC-AR-0346 (ESBL, colistin resistant) [6]: >1000 µg/mL
- MIC MRSA-ATCC33592 (MRSA-ATCC33592; [8]): >500 µg/mL
- MIC MRSA-1 (clinical isolate) [2, 8]: 50 µg/mL
- MIC Acinetobacter baumannii ATCC 19606 [7]: 10 µg/mL
- MIC MRSA-ATCC700699 (VISA) (MRSA-ATCC700699 (VISA); [9]): 500 µg/mL
- MIC MRSA-2 (clinical isolate) [3, 8]: 0.625 µg/mL
- MIC E. coli ATCC25922 (E. coli ATCC25922): 0.625 µg/mL
- MIC MRSA-ATCC33591 (MRSA-ATCC33591; [8]): 2.5 µg/mL
